Measured values reported in ChEMBL document CHEMBL4680259, “Discovery of bazedoxifene analogues targeting glycoprotein 130” (Eur J Med Chem, 2020).

What was measured:
[1] = target: T1, Interleukin-6 receptor subunit beta (Homo sapiens, UniProt P40189); test: Binding affinity to immobilized GP130 (unknown origin) by SPR analysis
T1 sequence (P40189 whole entry): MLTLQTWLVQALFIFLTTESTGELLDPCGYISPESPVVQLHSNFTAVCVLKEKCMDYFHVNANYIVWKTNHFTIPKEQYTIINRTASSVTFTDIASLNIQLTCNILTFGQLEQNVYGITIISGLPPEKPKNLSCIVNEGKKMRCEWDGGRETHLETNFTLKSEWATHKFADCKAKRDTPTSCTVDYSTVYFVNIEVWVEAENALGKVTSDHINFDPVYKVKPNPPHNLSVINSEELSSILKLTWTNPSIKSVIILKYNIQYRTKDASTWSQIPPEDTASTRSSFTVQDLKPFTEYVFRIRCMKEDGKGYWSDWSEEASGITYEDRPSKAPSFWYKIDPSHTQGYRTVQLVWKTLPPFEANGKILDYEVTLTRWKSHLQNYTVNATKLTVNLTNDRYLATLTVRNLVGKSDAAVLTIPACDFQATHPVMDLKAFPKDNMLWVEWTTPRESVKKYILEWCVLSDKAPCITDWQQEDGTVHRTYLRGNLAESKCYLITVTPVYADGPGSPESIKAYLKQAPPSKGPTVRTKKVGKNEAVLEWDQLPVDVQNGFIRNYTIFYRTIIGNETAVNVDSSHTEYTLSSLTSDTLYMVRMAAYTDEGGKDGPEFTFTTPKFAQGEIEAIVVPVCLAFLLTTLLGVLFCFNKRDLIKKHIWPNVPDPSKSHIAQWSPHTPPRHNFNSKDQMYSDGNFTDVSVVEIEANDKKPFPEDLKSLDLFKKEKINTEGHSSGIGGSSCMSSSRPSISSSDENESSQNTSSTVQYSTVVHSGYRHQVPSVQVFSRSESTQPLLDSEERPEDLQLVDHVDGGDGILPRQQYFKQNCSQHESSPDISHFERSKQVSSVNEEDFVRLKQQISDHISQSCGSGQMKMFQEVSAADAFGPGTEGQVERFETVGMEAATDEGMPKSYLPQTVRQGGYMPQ

[2] = target: T2, Interleukin-6 receptor subunit beta (Homo sapiens) (UniProt P40189); test: Binding affinity to immobilized GP130 (unknown origin) assessed as response unit at 20 uM by SPR analysis
T2 sequence (whole entry): T1 sequence (P40189 whole entry)

[3] = system: A549; test: Induction of apoptosis in human A549 cells assessed as early apoptotic cells at 9 uM incubated for 24 hrs by annexin V-FITC and propidium iodide staining based flow cytometry analysis (reference value: 0.5 %); assay type: functional
[4] = Clearance in rat at 5 mg/kg, ig; assay type: ADME, organism-based; settings: in vivo, po

SMILES: NC(=O)N1N=C(c2ccc(C(F)(F)F)cc2)CC1c1cn(Cc2ccc(OCCN3CCCCCC3)cc2)c2ccc(Br)cc12 (centres undefined)
- Kd [1]: 3.8 µM
- Activity [2]: 28.3 RU
- Activity [3]: 3.1%
- CL [4]: 14.8 mL/min/kg
